Experimental data taken from a melting point compilation (Tetko et al.; mined from patent text by program, amines drawn as free bases though some values may be those of a salt).

Structure (SMILES)	melting point
CC1(C)CON(Cc2cc(N3C(=O)C4=C(CCCC4)C3=O)c(F)cc2Cl)C1=O	136 to 138 °C
Cc1ccc(S(=O)(=O)c2ccc3c(c2)[C@@H](N2CCCC2=O)[C@H](O)C(C)(C)O3)cc1 (relative stereo)	242 to 243 °C
CCCCOC(=O)NS(=O)(=O)CCc1cc(OCCCC)nn1Cc1ccc(Cl)cc1Cl	108 to 111 °C
CCOC(=O)c1cn(C)c2cc(C(F)(F)F)ccc2c1=O	222 to 224 °C
O=C1c2cc(O)ccc2NCC1Cc1ccccc1 (stereo not given)	143 to 149 °C
CCCCCCCCCCCCCCCCCCOc1ccc(O)c(C(=O)N(N)C(=O)OCCCCCCCC)c1	85 °C
O=[N+]([O-])c1ccc(N2Cc3ccccc3P2(=O)c2ccccc2)cc1 (stereo not given)	255 to 257 °C
CCOC(=O)c1cnoc1-c1ccc(OC)c(OC)c1	113 to 114 °C
N#CC(C#N)(CC=C(Cl)Cl)Cc1ccc(OC(F)(F)F)cc1	96.5 °C
COc1cc(C(=O)CCCN2CCC(OC(=O)c3cc(Cl)c(N)c4c3OCCC4)CC2)cc(OC)c1OC	113 °C
Clc1ccc(-c2cc3ncnc(Nc4ccc5[nH]ccc5c4)c3s2)cc1	190 to 210 °C
CCOC(=O)c1c(C)cc2cnc(-c3ccccc3C)nc2c1C	56 to 57 °C
CCOC(Cc1ccc(NCCCC2=CCC(NS(C)(=O)=O)(OC(C)(C)C)C=C2)cc1)C(=O)O (stereo not given)	78 to 80 °C
CN1CCN(c2ncc(-c3ccccc3)c(C(=O)N(C)Cc3cc(C(F)(F)F)cc(C(F)(F)F)c3)n2)CC1	162 to 163 °C
COP(=O)(CC(=C(c1ccc(F)cc1)c1ccc(F)cc1)c1nnnn1C)OC	140 to 141 °C
COc1cc(-c2cnc3[nH]cc(C(=O)N4CCCC4)c3n2)cc(OC)c1OC	210 to 212 °C
CCOC(=O)N1CCC(=C2c3cc(F)ccc3CCc3cccnc32)CC1	112 to 114 °C
COCCOc1ccc(O)cc1	97.9 °C
CC(C)NCCCOc1ccc(O)cc1	92 to 100 °C
Cc1cc(C)nc(N2CC=C(N)N2)n1	205 °C
COC(=O)c1cccc2c(=O)c3c(I)cccc3[nH]c12	239 to 241 °C
COC(=O)c1ccc(-c2nc(-c3ccc4c(c3)C(C)(C)CCC4(C)C)no2)cc1	166 to 168 °C
CCC(NC(=O)c1c(O)c(-c2ccccc2)nc2ccccc12)c1ccccc1 (single isomer, unassigned; (-))	122 to 125 °C
CC(C)(C)S(=O)(=O)c1ccccc1NC(=O)N[C@@H](Cc1ccc(NC(=O)c2c(Cl)cncc2Cl)cc1)C(=O)O	228 °C

Structure (SMILES)	melting point
CC1(c2ccccc2)C(=O)Nc2ccccc2C1=O (stereo not given)	194 to 196 °C
OC1c2ccc(F)cc2SC1Cn1ccnc1 (stereo not given)	165 to 166 °C
CN(C)C(=O)c1cccc(NC(=O)Oc2ccccc2)c1	151 to 153 °C
CS(=O)(=O)CC(=O)Nc1ccccc1	140 to 141 °C
CN1C(=O)CC[C@]2(C)c3ccc(-c4ccc5c(c4)OCCO5)cc3CC[C@@H]12	183 to 189 °C
NC1=NC(c2ccc(OC(F)F)cc2)(c2cccc(-c3cccnc3F)c2)C2=NCC3(CCC3)CN12 (stereo not given)	220 to 226 °C
COc1ccc2c(c1)CCC1CCNC(=O)C(CCNC(C)C)=C21 (stereo not given)	147 to 149 °C
Cc1ccc(-c2c(N)ncnc2OCCO)cc1	91.5 to 93.5 °C
COc1ccc(-n2nc(OC(C)C)cc2-c2ccc(OCCNS(C)(=O)=O)cc2)cc1	168 °C
CCC(O)(CC)c1cc(C)c(-c2cccc(OCc3ccc(CO)c(CO)c3)c2)c(C)c1	133 °C
C=C1CC2C(CCC3(C)C2CCC3(OC)C(=O)COC(C)=O)C2(C)CCC(=O)C=C12 (stereo not given)	142 to 143 °C
O=S1(=O)c2cccc3cccc(c23)N1CCN1CCC(Cc2cnc3ccccc3c2)CC1	150 °C
CCc1c(NC(=O)c2ccc(Br)cc2)ccc2cc(CO)cnc12	202 to 204 °C
O=C(NC(=O)c1c(F)cccc1F)Nc1cc(C(F)(F)F)cc(C(F)(F)F)n1	152 °C
CC(=O)Oc1ccc(C2=NNC(=O)CC2C)cc1 (stereo not given)	152 to 153 °C
COc1cc2c(Cl)c(C(N)=O)cnc2cc1F	228 °C
O=[N+]([O-])c1ccccc1NCCNc1ccccc1	64 to 66 °C
O=C(O)Cc1c(C(=O)c2cc(CO)ccn2)[nH]c2ccc(Cl)cc12	218 to 219 °C
O=C(Nc1n[nH]c(=S)s1)NC(CC1CCCCC1)C(=O)NCCc1ccccc1 (stereo not given)	199 to 200 °C
CC(=O)Nc1c(CC(=O)O)cccc1Oc1ccccc1	155 to 156 °C
CCOC(=O)N1CCN(c2ccc(-n3cnn(C(CC)C(O)c4ccc(Cl)cc4)c3=O)cn2)CC1 (stereo not given)	196 °C
O=C1NC(=O)C(Nc2ccc(Cl)c3ccccc23)S1 (stereo not given)	205 to 206 °C
NC(=O)NC(=S)Nc1ccccc1	176 to 180 °C
COc1cc2c(cc1OC)C[C@@H](N1CCN(c3ccccc3OC)CC1)[C@H](O)C2 (relative stereo)	172 to 174 °C

Structure (SMILES)	melting point
OCCOc1ccc(C2=NCCO2)cc1	149 to 150 °C
COc1ccc(CC2CC(=O)CCN2C(=O)c2cc(C(F)(F)F)cc(C(F)(F)F)c2)cc1OC (stereo not given)	133 °C
Cc1cncn1Cc1nc2ccccc2n1-c1ccccc1	100 to 102 °C
CC1CN(c2ccc([N+](=O)[O-])cc2Cl)C(=O)O1 (stereo not given)	73 to 75 °C
COc1cccc(CC(=O)N2CCN(c3cccc(C(F)(F)F)c3)CC2)c1	99 to 101 °C
CC(C)(C)c1nc(-c2ccc3c(c2)OCO3)[nH]c1C(C)(C)C	175 to 178 °C
C=CCn1ccc2cc(NC(=O)c3nc4ccc(Cl)cc4n3Cc3ccccc3)ccc21	154 to 155 °C
CC(C)C[C@H](NC(=O)[C@@H]1CCCN1c1nc2ccccc2c(=O)o1)C(=O)NCC(N)=O	199 to 201 °C
CCCCCCC(C(=O)O)N1Cc2cc(-c3ccccc3-c3nn[nH]n3)ccc2N1 (stereo not given)	113 to 120 °C
C=CCOC1CCC2C3CCC4CC(=O)CCC4(C)C3CCC12C (stereo not given)	122 to 124 °C
CN(Cc1ccc(C2=NCCN2C(=O)OC(C)(C)C)cc1)C(=O)/C=C/CNCS(=O)(=O)c1ccc([N+](=O)[O-])cc1[N+](=O)[O-]	78 °C
CC(=O)c1ccccc1NC(C#N)c1c(Cl)cccc1Cl (stereo not given)	179 °C
CC(=O)N1CCc2nc(C)nc(-c3ccc(Cl)cc3)c2C1	139 to 141 °C
O=c1oc2ccccc2c(=O)n1OS(=O)(=O)C(F)(F)F	74 to 76 °C
CCCCC(=O)N(Cc1ccc(-c2ccccc2S(=O)(=O)N=CN(C)C)cc1)C(C#N)C(=O)OCC (stereo not given)	130 to 132 °C
CCCCCCNC(=O)c1ccc(N2N=C(C)C(=CNc3ccccc3CC)C2=O)cc1	62.1 °C
COC1OC(CO)C(O)C(OC(C)=O)C1Cl (stereo not given)	105 to 106 °C
CCCCCCCCCCCCOc1ccc(C#N)cc1-c1cc(C#N)ccc1OCCCCCCCCCCCC	168 to 170 °C
N#Cc1ccc2[nH]cc(C3CCC(=O)CC3)c2c1	162 to 164 °C
CC(C(O)c1ccc2c(c1)CCCS2)N1CCC(n2c(=O)[nH]c3ccccc32)CC1 (stereo not given)	232 to 235 °C
CN(C)C=Nc1[nH]nc(NCc2ccccc2)c1C#N	197 to 200 °C
COc1ccc(C2(Cn3ccn(Cc4ccccc4)c3=O)CC2)cc1OC	110 °C
